Data reported in patent publication US10023836B2, “Medium for yeasts” (YAMAGUCHI UNIVERSITY, priority 2012, dated 2018).

Experiments:
[1] = tested on: Saccharomyces cerevisiae leucine-requiring RAK778 strain (BY4712 (leu2Δ0) strain); assay: Leucine concentration in AKD culture medium, leucine-requiring strain (FIG. 16A); type: cell-based
Excerpt: Leucine concentration in the AKD culture mediums was adjusted to 0%, 0.0001%, 0.001%, 0.01%, 0.1%, and 1%, respectively, and proliferation of a Saccharomyces cerevisiae leucine-requiring RAK778 strain (BY4712 (leu2Δ0) strain) was investigated. […] Given the above-noted results, a preferred leucine concentration was understood to be around 0.1%.

[2] = tested on: Saccharomyces cerevisiae RAK3599 strain; assay: Leucine concentration in AKD culture medium, RAK3599 strain (FIG. 16B); type: cell-based
[3] = tested on: RAK2683 yeast strain; assay: Investigation of nitrogen source used singly in MM culture medium instead of ammonium sulfate (Table 4); type: cell-based, Saccharomyces cerevisiae; settings: Table 4 conditions
[4] = tested on: commercially available baker's yeast; assay: Aspartic acid swapped with ammonium sulfate, compared with MM and YPD (FIG. 2); type: cell-based; settings: between 0.5 and 2.0% aspartic acid added
Experimental: In Table 4, a culture medium was prepared in which aspartic acid (Asp), which had the highest value for OD600 after 48 hours, was swapped with ammonium sulfate, and the proliferation of yeast (commercially available baker's yeast) in the MM culture medium and YPD was compared. […] Based on this information, a BM culture medium in which 2% aspartic acid had been added as a nitrogen source to 0.17% YNB and 2% glucose was used as an object of investigation.

Row | Structure (SMILES) | concentration at which almost no proliferation was observed [1] | concentration at which proliferation reached a maximum value [1] | concentration at which proliferation was inhibited [1] | preferred concentration ([1]; from results with RAK778 and RAK3599 strains) | concentration at which proliferation was inhibited [2] | proliferation when added singly as nitrogen source [3] | proliferation compared with ammonium sulfate-added culture medium [4]
1 | CC(C)C[C@H](N)C(=O)O [Leucine, L-Leucine] | less than 0.001% | 0.1% | 1% | around 0.1% | 1% |  | 
2 | N[C@@H](CC(=O)[O-])C(=O)[O-].O.[Na+].[Na+] [Aspartic acid, L-Aspartic acid sodium salt monohydrate] |  |  |  |  |  | favorable proliferation | proliferation markedly improved over that of a culture medium to which ammonium sulfate had been added
